Earlier results, collected in article PMC6006448 (ACS Chemical Biology, 2018).

Test system: Rac1 and Cdc42

COc1ccc2cc([C@@H](C)C(=O)O)ccc2c1 [R-naproxen]
action on Rac1 and Cdc42 in a cellular setting: inhibitor
